Laboratory results published in PubChem BioAssay (NCI).
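Five concentrations, 48 hours, 96-well plates. GI50 is the concentration that inhibits growth by half. TGI is the concentration that stops growth completely.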

Experiments:
Test in all cases: inhibition of tumour cell growth, NCI panel, 48 h
786-0 renal = tested on: 786-0 renal
A498 renal = tested on: A498 renal
A549 NSCLC = tested on: A549 NSCLC
ACHN renal = tested on: ACHN renal
BT-549 breast = tested on: BT-549 breast
CAKI-1 renal = tested on: CAKI-1 renal
CCRF-CEM leukemia = tested on: CCRF-CEM leukemia
COLO 205 colon = tested on: COLO 205 colon
DU-145 prostate = tested on: DU-145 prostate
HCC-2998 colon = tested on: HCC-2998 colon
HCT-15 colon = tested on: HCT-15 colon
HL-60(TB) leukemia = tested on: HL-60(TB) leukemia
HOP-62 NSCLC = tested on: HOP-62 NSCLC
HOP-92 NSCLC = tested on: HOP-92 NSCLC
HS 578T breast = tested on: HS 578T breast
HT29 colon = tested on: HT29 colon
K-562 leukemia = tested on: K-562 leukemia
KM12 colon = tested on: KM12 colon
M14 melanoma = tested on: M14 melanoma
MALME-3M melanoma = tested on: MALME-3M melanoma
MCF7 breast = tested on: MCF7 breast
MDA-MB-231 breast = tested on: MDA-MB-231 breast
MDA-MB-435 = tested on: MDA-MB-435
MOLT-4 leukemia = tested on: MOLT-4 leukemia
NCI-H226 lung = tested on: NCI-H226 lung
NCI-H23 lung = tested on: NCI-H23 lung
NCI-H460 lung = tested on: NCI-H460 lung
NCI-H522 lung = tested on: NCI-H522 lung
NCI/ADR-RES ovarian = tested on: NCI/ADR-RES ovarian
OVCAR-3 ovarian = tested on: OVCAR-3 ovarian
OVCAR-4 ovarian = tested on: OVCAR-4 ovarian
OVCAR-5 ovarian = tested on: OVCAR-5 ovarian
OVCAR-8 ovarian = tested on: OVCAR-8 ovarian
PC-3 prostate = tested on: PC-3 prostate
RPMI-8226 leukemia = tested on: RPMI-8226 leukemia
SF-268 CNS = tested on: SF-268 CNS
SF-295 CNS = tested on: SF-295 CNS
SF-539 CNS = tested on: SF-539 CNS
SK-MEL-2 melanoma = tested on: SK-MEL-2 melanoma
SK-MEL-28 melanoma = tested on: SK-MEL-28 melanoma
SK-MEL-5 melanoma = tested on: SK-MEL-5 melanoma
SK-OV-3 ovarian = tested on: SK-OV-3 ovarian
SN12C renal = tested on: SN12C renal
SNB-19 CNS = tested on: SNB-19 CNS
SNB-75 CNS = tested on: SNB-75 CNS
SR leukemia = tested on: SR leukemia
SW-620 colon = tested on: SW-620 colon
T-47D breast = tested on: T-47D breast
TK-10 renal = tested on: TK-10 renal
U251 CNS = tested on: U251 CNS
UACC-257 melanoma = tested on: UACC-257 melanoma
UO-31 renal = tested on: UO-31 renal

COCCNCC(O)Cn1c2ccc(Cl)cc2c2cc(Cl)ccc21 (centres undefined)
GI50 (786-0 renal): 1.8 µM
TGI (786-0 renal): 3.42 µM
GI50 (A498 renal): 1.73 µM
TGI (A498 renal): 5.32 µM
GI50 (A549 NSCLC): 1.79 µM
TGI (A549 NSCLC): 3.74 µM
GI50 (ACHN renal): 1.87 µM
TGI (ACHN renal): 3.76 µM
GI50 (BT-549 breast): 2.06 µM
TGI (BT-549 breast): 4.36 µM
GI50 (CAKI-1 renal): 1.7 µM
TGI (CAKI-1 renal): 3.36 µM
GI50 (CCRF-CEM leukemia): 1.92 µM
TGI (CCRF-CEM leukemia): 4.25 µM
GI50 (COLO 205 colon): 2.08 µM
TGI (COLO 205 colon): 3.83 µM
GI50 (DU-145 prostate): 2.12 µM
TGI (DU-145 prostate): 4.05 µM
GI50 (HCC-2998 colon): 1.81 µM
TGI (HCC-2998 colon): 3.45 µM
GI50 (HCT-15 colon): 2.06 µM
TGI (HCT-15 colon): 5 µM
GI50 (HL-60(TB) leukemia): 2.05 µM
TGI (HL-60(TB) leukemia): 4.51 µM
GI50 (HOP-62 NSCLC): 1.87 µM
TGI (HOP-62 NSCLC): 3.45 µM
GI50 (HOP-92 NSCLC): 1.57 µM
TGI (HOP-92 NSCLC): 5.17 µM
GI50 (HS 578T breast): 1.99 µM
TGI (HS 578T breast): 5.51 µM
GI50 (HT29 colon): 2.23 µM
TGI (HT29 colon): 4.24 µM
GI50 (K-562 leukemia): 2.19 µM
TGI (K-562 leukemia): 4.64 µM
GI50 (KM12 colon): 1.9 µM
TGI (KM12 colon): 3.42 µM
GI50 (M14 melanoma): 2.06 µM
TGI (M14 melanoma): 4.16 µM
GI50 (MALME-3M melanoma): 1.98 µM
TGI (MALME-3M melanoma): 3.89 µM
GI50 (MCF7 breast): 1.81 µM
TGI (MCF7 breast): 3.49 µM
GI50 (MDA-MB-231 breast): 1.67 µM
TGI (MDA-MB-231 breast): 3.4 µM
GI50 (MDA-MB-435): 1.7 µM
TGI (MDA-MB-435): 3.19 µM
GI50 (MOLT-4 leukemia): 1.97 µM
TGI (MOLT-4 leukemia): 4.05 µM
GI50 (NCI-H226 lung): 2.25 µM
TGI (NCI-H226 lung): 5.92 µM
GI50 (NCI-H23 lung): 2.1 µM
TGI (NCI-H23 lung): 4.7 µM
GI50 (NCI-H460 lung): 1.86 µM
TGI (NCI-H460 lung): 3.6 µM
GI50 (NCI-H522 lung): 2.03 µM
TGI (NCI-H522 lung): 3.89 µM
GI50 (NCI/ADR-RES ovarian): 2.39 µM
TGI (NCI/ADR-RES ovarian): 5.59 µM
GI50 (OVCAR-3 ovarian): 1.95 µM
TGI (OVCAR-3 ovarian): 3.66 µM
GI50 (OVCAR-4 ovarian): 2.01 µM
TGI (OVCAR-4 ovarian): 5.2 µM
GI50 (OVCAR-5 ovarian): 2.15 µM
TGI (OVCAR-5 ovarian): 5.23 µM
GI50 (OVCAR-8 ovarian): 2.06 µM
TGI (OVCAR-8 ovarian): 5.08 µM
GI50 (PC-3 prostate): 1.75 µM
TGI (PC-3 prostate): 3.81 µM
GI50 (RPMI-8226 leukemia): 2.14 µM
TGI (RPMI-8226 leukemia): 5.25 µM
GI50 (SF-268 CNS): 1.79 µM
TGI (SF-268 CNS): 3.48 µM
GI50 (SF-295 CNS): 1.93 µM
TGI (SF-295 CNS): 4.28 µM
GI50 (SF-539 CNS): 1.8 µM
TGI (SF-539 CNS): 3.43 µM
GI50 (SK-MEL-2 melanoma): 2.16 µM
TGI (SK-MEL-2 melanoma): 4.18 µM
GI50 (SK-MEL-28 melanoma): 1.73 µM
TGI (SK-MEL-28 melanoma): 3.25 µM
GI50 (SK-MEL-5 melanoma): 1.71 µM
TGI (SK-MEL-5 melanoma): 3.18 µM
GI50 (SK-OV-3 ovarian): 2.46 µM
TGI (SK-OV-3 ovarian): 5.93 µM
GI50 (SN12C renal): 1.94 µM
TGI (SN12C renal): 4.46 µM
GI50 (SNB-19 CNS): 3.48 µM
TGI (SNB-19 CNS): 16.6 µM
GI50 (SNB-75 CNS): 1.12 µM
TGI (SNB-75 CNS): 4.15 µM
GI50 (SR leukemia): 2.98 µM
TGI (SR leukemia): 6.92 µM
GI50 (SW-620 colon): 1.83 µM
TGI (SW-620 colon): 3.64 µM
GI50 (T-47D breast): 1.97 µM
TGI (T-47D breast): 4.03 µM
GI50 (TK-10 renal): 1.79 µM
TGI (TK-10 renal): 3.37 µM
GI50 (U251 CNS): 1.94 µM
TGI (U251 CNS): 3.93 µM
GI50 (UACC-257 melanoma): 1.68 µM
TGI (UACC-257 melanoma): 3.35 µM
GI50 (UO-31 renal): 1.75 µM
TGI (UO-31 renal): 4.17 µM
